Measured values taken from ChEMBL document CHEMBL1125940 (Bioorg Med Chem Lett, 1991).
Positions of bridges follow the written chain, without caps; N, C: chain ends. Non-standard residues stand in square brackets, D forms with d. Residues, ends and D or L forms follow the SMILES beside them. Nle = CCCC[C@H](N)C(=O)O

biological target: T1, Endothelin-1 receptor (Rattus norvegicus, UniProt P26684); assay: Binding affinity towards Endothelin A receptor in A10 rat thoracic aorta smooth muscle cells using [125I]ET1 as radioligand
T1 sequence (P26684 whole entry): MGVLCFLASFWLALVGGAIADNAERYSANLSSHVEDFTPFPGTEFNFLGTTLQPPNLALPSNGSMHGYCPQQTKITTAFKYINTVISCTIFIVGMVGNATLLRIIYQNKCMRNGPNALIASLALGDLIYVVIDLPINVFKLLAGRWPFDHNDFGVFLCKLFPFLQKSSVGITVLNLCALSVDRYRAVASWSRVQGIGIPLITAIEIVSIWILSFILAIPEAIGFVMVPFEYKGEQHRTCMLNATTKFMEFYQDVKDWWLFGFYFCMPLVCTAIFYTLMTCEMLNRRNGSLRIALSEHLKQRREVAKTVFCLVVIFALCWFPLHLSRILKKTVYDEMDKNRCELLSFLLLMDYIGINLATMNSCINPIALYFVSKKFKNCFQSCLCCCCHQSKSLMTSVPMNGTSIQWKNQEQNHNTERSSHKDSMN

Row | SMILES | Kd [µM]
1 | CC[C@H](C)[C@H](NC(=O)[C@H](CC(=O)O)NC(=O)[C@H](CC(C)C)NC(=O)[C@H](Cc1cnc[nH]1)NC(=O)[C@@H]1CSSC[C@H](N)C(=O)N[C@@H](CO)C(=O)N[C@H]2CSSC[C@H](NC(=O)[C@H](CCC(=O)O)NC(=O)[C@H](CCCCN)NC(=O)[C@H](CC(=O)O)NC(=O)[C@H](C)NC(=O)[C@H](C)NC(=O)[C@H](C)NC(=O)[C@H](C)NC2=O)C(=O)N[C@@H](C(C)C)C(=O)N[C@@H](Cc2ccc(O)cc2)C(=O)N[C@@H](Cc2ccccc2)C(=O)N1)C(=O)N[C@H](C(=O)N[C@@H](Cc1c[nH]c2ccccc12)C(=O)O)[C@@H](C)CC (H-CSCAAAADKECVYFCHLDIIW-OH; disulfide 1-15, 3-11) | 0.13
2 | CSCC[C@@H]1NC(=O)[C@H](CC(C)C)NC(=O)[C@H](CO)NC(=O)[C@H](CO)NC(=O)[C@@H]2CSSC[C@H](NC(=O)[C@H](CCC(=O)O)NC(=O)[C@H](CCCCN)NC(=O)[C@H](CC(=O)O)NC1=O)C(=O)N[C@@H](C(C)C)C(=O)N[C@@H](Cc1ccc(O)cc1)C(=O)N[C@@H](Cc1ccccc1)C(=O)N[C@H](C(=O)N[C@@H](Cc1cnc[nH]1)C(=O)N[C@@H](CC(C)C)C(=O)N[C@@H](CC(=O)O)C(=O)N[C@@H](C)C(=O)N[C@@H](C)C(=O)N[C@@H](Cc1c[nH]c3ccccc13)C(=O)O)CSSC[C@H](N)C(=O)N[C@@H](CO)C(=O)N2 (H-CSCSSLMDKECVYFCHLDAAW-OH; disulfide 1-15, 3-11) | 0.929

Continued, values first:

Row | Kd [µM] | SMILES
3 | 0.00211 | CC[C@H](C)[C@H](NC(=O)[C@H](CC(=O)O)NC(=O)[C@H](CC(C)C)NC(=O)[C@H](Cc1cnc[nH]1)NC(=O)[C@@H]1CSSC[C@H](N)C(=O)N[C@@H](CO)C(=O)N[C@H]2CSSC[C@H](NC(=O)[C@H](CCC(=O)O)NC(=O)[C@H](CCCCN)NC(=O)[C@H](CC(=O)O)NC(=O)[C@H](CCSC)NC(=O)[C@H](CC(C)C)NC(=O)[C@H](CO)NC(=O)[C@H](CO)NC2=O)C(=O)N[C@@H](C(C)C)C(=O)N[C@@H](Cc2ccc(O)cc2)C(=O)N[C@@H](Cc2ccccc2)C(=O)N1)C(=O)N[C@@H](C)C(=O)N[C@@H](Cc1c[nH]c2ccccc12)C(=O)O (H-CSCSSLMDKECVYFCHLDIAW-OH; disulfide 1-15, 3-11)
4 | 3.07 | CC[C@H](C)[C@H](NC(=O)[C@H](CC(=O)O)NC(=O)[C@H](CC(C)C)NC(=O)[C@H](Cc1c[nH]cn1)NC(=O)[C@@H]1CSSC[C@H](N)C(=O)N[C@@H](CO)C(=O)N[C@H]2CSSC[C@H](NC(=O)[C@H](CCC(=O)O)NC(=O)[C@H](CCCCN)NC(=O)[C@H](C)NC(=O)[C@H](CCSC)NC(=O)[C@H](CC(C)C)NC(=O)[C@H](CO)NC(=O)[C@H](CO)NC2=O)C(=O)N[C@@H](C(C)C)C(=O)N[C@@H](Cc2ccc(O)cc2)C(=O)N[C@@H](Cc2ccccc2)C(=O)N1)C(=O)N[C@H](C(=O)N[C@@H](Cc1c[nH]c2ccccc12)C(=O)O)[C@@H](C)CC (H-CSCSSLMAKECVYFCHLDIIW-OH; disulfide 1-15, 3-11)
5 | 0.646 | CC[C@H](C)[C@H](NC(=O)[C@H](CC(=O)O)NC(=O)[C@H](CC(C)C)NC(=O)[C@H](Cc1c[nH]cn1)NC(=O)[C@@H]1CSSC[C@H](N)C(=O)N[C@@H](CO)C(=O)N[C@H]2CSSC[C@H](NC(=O)[C@H](CCC(=O)O)NC(=O)[C@H](CCCCN)NC(=O)[C@H](CC(=O)O)NC(=O)[C@H](CCSC)NC(=O)[C@H](CC(C)C)NC(=O)[C@H](CO)NC(=O)[C@H](CO)NC2=O)C(=O)N[C@@H](C(C)C)C(=O)N[C@@H](Cc2ccc(O)cc2)C(=O)N[C@@H](C)C(=O)N1)C(=O)N[C@H](C(=O)N[C@@H](Cc1c[nH]c2ccccc12)C(=O)O)[C@@H](C)CC (H-CSCSSLMDKECVYACHLDIIW-OH; disulfide 1-15, 3-11)
6 | 0.188 | CC[C@H](C)[C@H](NC(=O)[C@H](CC(=O)O)NC(=O)[C@H](CC(C)C)NC(=O)[C@H](Cc1cnc[nH]1)NC(=O)[C@@H]1CSSC[C@H](N)C(=O)N[C@@H](CO)C(=O)N[C@H]2CSSC[C@H](NC(=O)[C@H](C)NC(=O)[C@H](CCCCN)NC(=O)[C@H](CC(=O)O)NC(=O)[C@H](CCSC)NC(=O)[C@H](CC(C)C)NC(=O)[C@H](CO)NC(=O)[C@H](CO)NC2=O)C(=O)N[C@@H](C(C)C)C(=O)N[C@@H](Cc2ccc(O)cc2)C(=O)N[C@@H](Cc2ccccc2)C(=O)N1)C(=O)N[C@H](C(=O)N[C@@H](Cc1c[nH]c2ccccc12)C(=O)O)[C@@H](C)CC (H-CSCSSLMDKACVYFCHLDIIW-OH; disulfide 1-15, 3-11)
7 | > 20 | CC[C@H](C)[C@H](NC(=O)[C@H](CC(=O)O)NC(=O)[C@H](CC(C)C)NC(=O)[C@H](Cc1c[nH]cn1)NC(=O)[C@@H]1CSSC[C@H](N)C(=O)N[C@@H](CO)C(=O)N[C@H]2CSSC[C@H](NC(=O)[C@H](CCC(=O)O)NC(=O)[C@H](CCCCN)NC(=O)[C@H](CC(=O)O)NC(=O)[C@H](CCSC)NC(=O)[C@H](CC(C)C)NC(=O)[C@H](CO)NC(=O)[C@H](CO)NC2=O)C(=O)N[C@@H](C(C)C)C(=O)N[C@@H](Cc2ccc(O)cc2)C(=O)N[C@@H](Cc2ccccc2)C(=O)N1)C(=O)N[C@H](C(=O)N[C@@H](C)C(=O)O)[C@@H](C)CC (H-CSCSSLMDKECVYFCHLDIIA-OH; disulfide 1-15, 3-11)

organism: Oryctolagus cuniculus; assay: Effective concentration required for stimulation of vascular contraction tested in vitro using carotid arteries of New Zealand white rabbits; assay type: functional

Row | SMILES | EC50 [µM]
8 | CCCC[C@@H]1NC(=O)[C@H](CC(C)C)NC(=O)[C@H](CO)NC(=O)[C@H](CO)NC(=O)[C@H](C)NC(=O)[C@H](CO)NC(=O)[C@@H](N)CSSC[C@@H](C(=O)N[C@@H](Cc2c[nH]cn2)C(=O)N[C@@H](CC(C)C)C(=O)N[C@@H](CC(=O)O)C(=O)N[C@H](C(=O)N[C@H](C(=O)N[C@@H](Cc2c[nH]c3ccccc23)C(=O)O)[C@@H](C)CC)[C@@H](C)CC)NC(=O)[C@H](Cc2ccccc2)NC(=O)[C@H](Cc2ccc(O)cc2)NC(=O)[C@H](C(C)C)NC(=O)[C@H](C)NC(=O)[C@H](CCC(=O)O)NC(=O)[C@H](CCCCN)NC(=O)[C@H](CC(=O)O)NC1=O (H-CSASSL[Nle]DKEAVYFCHLDIIW-OH; disulfide 1-15) | 0.0033
9 | CC[C@H](C)[C@H](NC(=O)[C@H](CC(=O)O)NC(=O)[C@H](CC(C)C)NC(=O)[C@H](Cc1c[nH]cn1)NC(=O)[C@@H]1CSSC[C@H](N)C(=O)N[C@@H](CO)C(=O)N[C@H]2CSSC[C@H](NC(=O)[C@H](CCC(=O)O)NC(=O)[C@H](CCCCN)NC(=O)[C@H](CC(=O)O)NC(=O)[C@H](CCSC)NC(=O)[C@H](CC(C)C)NC(=O)[C@H](CO)NC(=O)[C@H](CO)NC2=O)C(=O)N[C@@H](C(C)C)C(=O)N[C@@H](Cc2ccc(O)cc2)C(=O)N[C@@H](Cc2ccccc2)C(=O)N1)C(=O)N[C@H](C(=O)N[C@@H](Cc1c[nH]c2ccccc12)C(=O)O)[C@@H](C)CC [ENDOTHELIN] | 0.00094
10 | CC[C@H](C)[C@H](NC(=O)[C@H](CC(=O)O)NC(=O)[C@H](CC(C)C)NC(=O)[C@H](Cc1c[nH]cn1)NC(=O)[C@@H]1CSSC[C@H](N)C(=O)N[C@@H](CO)C(=O)N[C@H]2CSSC[C@H](NC(=O)[C@H](CCC(=O)O)NC(=O)[C@H](CCCCN)NC(=O)[C@H](CC(=O)O)NC(=O)[C@H](C)NC(=O)[C@H](C)NC(=O)[C@H](C)NC(=O)[C@H](C)NC2=O)C(=O)N[C@@H](C(C)C)C(=O)N[C@@H](Cc2ccc(O)cc2)C(=O)N[C@@H](Cc2ccccc2)C(=O)N1)C(=O)N[C@H](C(=O)N[C@@H](Cc1c[nH]c2ccccc12)C(=O)O)[C@@H](C)CC (H-CSCAAAADKECVYFCHLDIIW-OH; disulfide 1-15, 3-11) | 0.036

Further lines, results first:

Row | EC50 [µM] | SMILES
11 | 0.038 | CC[C@H](C)[C@H](NC(=O)[C@H](CC(=O)O)NC(=O)[C@H](CC(C)C)NC(=O)[C@H](Cc1c[nH]cn1)NC(=O)[C@@H]1CSSC[C@H](N)C(=O)N[C@@H](C)C(=O)N[C@H]2CSSC[C@H](NC(=O)[C@H](CCC(=O)O)NC(=O)[C@H](CCCCN)NC(=O)[C@H](CC(=O)O)NC(=O)[C@H](CCSC)NC(=O)[C@H](CC(C)C)NC(=O)[C@H](CO)NC(=O)[C@H](CO)NC2=O)C(=O)N[C@@H](C(C)C)C(=O)N[C@@H](Cc2ccc(O)cc2)C(=O)N[C@@H](Cc2ccccc2)C(=O)N1)C(=O)N[C@H](C(=O)N[C@@H](Cc1c[nH]c2ccccc12)C(=O)O)[C@@H](C)CC (H-CACSSLMDKECVYFCHLDIIW-OH; disulfide 1-15, 3-11)
12 | 0.182 | CC[C@H](C)[C@H](NC(=O)[C@H](C)NC(=O)[C@H](CC(=O)O)NC(=O)[C@H](CC(C)C)NC(=O)[C@H](Cc1c[nH]cn1)NC(=O)[C@@H]1CSSC[C@H](N)C(=O)N[C@@H](CO)C(=O)N[C@H]2CSSC[C@H](NC(=O)[C@H](CCC(=O)O)NC(=O)[C@H](CCCCN)NC(=O)[C@H](CC(=O)O)NC(=O)[C@H](CCSC)NC(=O)[C@H](CC(C)C)NC(=O)[C@H](CO)NC(=O)[C@H](CO)NC2=O)C(=O)N[C@@H](C(C)C)C(=O)N[C@@H](Cc2ccc(O)cc2)C(=O)N[C@@H](Cc2ccccc2)C(=O)N1)C(=O)N[C@@H](Cc1c[nH]c2ccccc12)C(=O)O (H-CSCSSLMDKECVYFCHLDAIW-OH; disulfide 1-15, 3-11)
13 | 0.13 | CC[C@H](C)[C@H](NC(=O)[C@H](CC(=O)O)NC(=O)[C@H](CC(C)C)NC(=O)[C@H](Cc1c[nH]cn1)NC(=O)[C@@H]1CSSC[C@H](N)C(=O)N[C@@H](CO)C(=O)N[C@H]2CSSC[C@H](NC(=O)[C@H](CCC(=O)O)NC(=O)[C@H](CCCCN)NC(=O)[C@H](CC(=O)O)NC(=O)[C@H](CCSC)NC(=O)[C@H](CC(C)C)NC(=O)[C@H](CO)NC(=O)[C@H](CO)NC2=O)C(=O)N[C@@H](C)C(=O)N[C@@H](Cc2ccc(O)cc2)C(=O)N[C@@H](Cc2ccccc2)C(=O)N1)C(=O)N[C@H](C(=O)N[C@@H](Cc1c[nH]c2ccccc12)C(=O)O)[C@@H](C)CC (H-CSCSSLMDKECAYFCHLDIIW-OH; disulfide 1-15, 3-11)
